# Data: patent US6432426B1, “Non-staining topical iodine composition and method” (Symbollon Corporation, priority 1998, dated 2002)
# Columns and labels:
# Human Skin = experiment: Coloration of human skin by a 30 second exposure (vial contact on forearm); hue by Pantone chips, intensity against Brown No. 3 dye; type: in vivo; parameters: key to Coloration of human skin: N = no visible staining; L = light staining barely noticeable; S = a clearly visible coloration; conditions: for Coloration of human skin: 30 second exposure, lines = Subjects 1-3
# Description: 1. […] Elemental iodine was weighed on an analytical balance and dissolved in one liter of water that had been acidified with 2 drops of 0.1N hydrochloric acid. The concentration of molecular iodine in the water was confirmed by potentiometric analysis (Gottardi, W., 1983. Fresenius Z. Anal. Chem., Vol. 314, pages 582-585). Samples were also titrated with thiosulfate to determine that at least 95% of the theoretical yield of titratable iodine was in the form of molecular iodine as opposed to triiodide. The concentration of molecular iodine was varied from 25 ppm to 330 ppm.
# One dram vials (Kimble catalog #60931) were used to deliver 4 mL of the room temperature iodine solutions samples. The vials were placed on the forearm of a subject and then the forearm was inverted to initiate contact of the sample with the iodine solution. The contact area was a circle with a diameter of 1.3 cm. The samples were held on the arm for 30 seconds at room temperature. Three different subjects were used for this experiment. Immediately after the 30 second contact time the arms of the subjects were examined for stains; 10 minutes after the end of the contact time all subjects arms were examined for stains again..
# For the purposes of this application, two different parameters were used to characterize the color and intensity of the term stain. The hue of the color imparted to skin was characterized by using the Pantone Color Matching System (Pantone Color Specifier, Pantone Inc., Carlstadt, N.J.) which allows comparison with 1,012 defined colors on two types of paper. Stains from triiodide were matched to the Pantone color chip No. 152C. Short-lived coloration from molecular iodine were matched to the Pantone color chip 1375C.
# The intensity of any coloration on skin was characterized by applying an aqueous solution of known concentrations of a food dye, Brown No. 3 (Crompton & Knowles, Mahwah, N.J. —Code DP935159), for 10 seconds using the method described above for application of iodine. Brown No. 3 was applied to the skin at concentrations that ranged from 500 ppm to 30 ppm and the intensity of the color from Brown No. 3 was compared to the intensity of coloration from iodine compositions. For instance, the intensity of color 10 minutes after a 30 second contact with a 600 ppm aqueous triiodide solution was equivalent to the color from a 10 second exposure to a 250 ppm Brown No. 3 solution. In contrast, the intensity of color 10 minutes after a 30 second contact with a 300 ppm aqueous molecular iodine solution was equivalent to the color from a ten second exposure to a 30 ppm Brown No. 3 solution which is barely discernible.
# [1] = Concentration of molecular iodine in a saturated solution; type: physicochemical; conditions: pH of 4.5
# Protocol: 5. […] A saturated solution of molecular iodine was prepared at a pH of 4.5. The concentration of molecular iodine was measured to be 320 ppm and the concentration of triiodide was determined to be less than 5 ppm. A 1.0 dram vial containing four mL of the saturated iodine solution was contacted with the forearm of a subject and then the forearm was inverted to initiate contact of the sample with the molecular iodine solution. The samples were contacted with the arm for 30 seconds. After contact the treated arm was flushed with water for 15 seconds and dried.
smiles,measurement,setting,value
"II [Molecular Iodine, molecular iodine]",Coloration of human skin,"Human Skin; 25 ppm molecular iodine, 0 min post contact",N
same,Coloration of human skin,"Human Skin; 25 ppm molecular iodine, 10 min post contact",N
same,Coloration of human skin,"Human Skin; 50 ppm molecular iodine, 0 min post contact",N
same,Coloration of human skin,"Human Skin; 50 ppm molecular iodine, 10 min post contact",N
same,Coloration of human skin,"Human Skin; 100 ppm molecular iodine, 0 min post contact",N and L
same,Coloration of human skin,"Human Skin; 100 ppm molecular iodine, 10 min post contact",N
same,Coloration of human skin,"Human Skin; 200 ppm molecular iodine, 0 min post contact",S
same,Coloration of human skin,"Human Skin; 200 ppm molecular iodine, 10 min post contact",N
same,Coloration of human skin,"Human Skin; 300 ppm molecular iodine, 0 min post contact",S
same,Coloration of human skin,"Human Skin; 300 ppm molecular iodine, 10 min post contact",N and L
same,"Intensity of color on skin, equivalent Brown No. 3 solution (ten second exposure)","Human Skin; 10 minutes after a 30 second contact with a 300 ppm aqueous molecular iodine solution, barely discernible",30 ppm
same,"Hue of the color imparted to skin, matched Pantone color chip",Human Skin; Pantone Color Matching System,1375C
same,Concentration of molecular iodine in saturated solution,[1],320 ppm
